The values that follow are results of earlier work, collected in patent publication US20100119622A1, “3H-BENZOOXAZOL-2-ONE MODULATORS OF D2 RECEPTOR AND/OR 5-HT1A RECEPTOR” (AUSPEX PHARMACEUTICALS, INC., priority 2008, published 2010).

The conditions of the data set: healthy subjects.

SMILES strings stand for the structures.

As to `O=c1[nH]c2cccc(N3CCN(Cc4cccc(-c5ccccc5)c4)CC3)c2o1` [Bifeprunox, 7-[4-[(3-Phenylphenyl)methyl]piperazin-1-yl]-3H-benzooxazol-2-one], the elimination half-life was 14 h.
